Measured values as given in ChEMBL document CHEMBL4673317, “Linearolactone and Kaempferol Disrupt the Actin Cytoskeleton in Entamoeba histolytica: Inhibition of Amoebic Liver Abscess Development” (J Nat Prod, 2020).
Calls of active or inactive are those of the source. The rule behind the calls is not given here.

Tests used:
[1] = system: Entamoeba histolytica; test: Induction of apoptosis in Entamoeba histolytica […] trophozoites assessed as late apoptotic cells at IC50 concentration after 48 hrs by annexin-V-FITC/propidium iodide staining based flow cytometric analysis (reference value: 0.7%); format: functional, HM-1:IMSS
[2] = system: Entamoeba histolytica; test: Antimicrobial activity against Entamoeba histolytica […] trophozoites infected in Syrian hamster assessed as inhibition of amoebic liver abscess at 0.1 mg/kg, ip at 4 days post infection and measured on day 8 by NMR analysis; format: functional, organism-based; settings: HM-1:IMSS, time 4.0 day
[3] = system: Entamoeba histolytica; test: Antimicrobial activity against Entamoeba histolytica […] trophozoites assessed as decrease in size of cells at IC50 concentration after 48 hrs by uranyl acetate staining based TEM analysis; format: functional, organism-based; settings: HM-1:IMSS
[4] = system: Entamoeba histolytica; test: Antimicrobial activity against Entamoeba histolytica […] trophozoites infected in Syrian hamster assessed as blood ureic nitrogen level at 0.1 mg/kg, ip at 4 days post infection and measured on day 8 (reference value: […]); format: functional, HM-1:IMSS; settings: time 4 day
[5] = system: Entamoeba histolytica; test: Antimicrobial activity against Entamoeba histolytica […] trophozoites infected in Syrian hamster assessed as glucose level at 0.1 mg/kg, ip at 4 days post infection and measured on day 8 (reference value: 126 +/- 18 mg/dl); format: functional, HM-1:IMSS; settings: time 4 day
[6] = system: Entamoeba histolytica; test: Binding affinity to Entamoeba histolytica […] trophozoites actin assessed as induction of polarization of polymerized actin at IC50 concentration incubated for 1 hrs by […] staining based confocal microscopic analysis
[7] = system: Entamoeba histolytica; test: Antimicrobial activity against Entamoeba histolytica […] trophozoites infected in Syrian hamster assessed as total bilirubin level at 0.1 mg/kg, ip at 4 days post infection and measured on day 8 (reference value: 0.8 +/- 0.2 mg/dl); format: functional, HM-1:IMSS; settings: time 4 day
[8] = system: Entamoeba histolytica; test: Induction of apoptosis in Entamoeba histolytica […] trophozoites assessed as necrotic cells at IC50 concentration after 48 hrs by annexin-V-FITC/propidium iodide staining based flow cytometric analysis (reference value: 0.4%); format: functional, HM-1:IMSS
[9] = system: Entamoeba histolytica; test: Antimicrobial activity against Entamoeba histolytica […] trophozoites infected in Syrian hamster assessed as urea level at 0.1 mg/kg, ip at 4 days post infection and measured on day 8 (reference value: 14 +/- 1 mg/dl); format: functional, HM-1:IMSS; settings: time 4 day
[10] = system: BEAS-2B; test: Cytotoxicity against human BEAS-2B cells assessed as reduction in cell viability after 24 hrs by MTT assay; format: cell-based
[11] = system: Entamoeba histolytica; test: Antimicrobial activity against Entamoeba histolytica […] trophozoites infected in Syrian hamster assessed as inhibition of amoebic liver abscess by abundant monocytes at 0.1 mg/kg, ip at 4 days post infection and measured on day 8 by H and E staining based microscopic method; format: functional, organism-based; settings: HM-1:IMSS, time 4.0 day
[12] = system: Entamoeba histolytica; test: Antimicrobial activity against Entamoeba histolytica […] trophozoites infected in Syrian hamster assessed as platelets at 0.1 mg/kg, ip at 4 days post infection and measured on day 8 (reference value: 439 +/- 108 […]); format: functional, HM-1:IMSS; settings: time 4 day
[13] = system: Entamoeba histolytica; test: Antimicrobial activity against Entamoeba histolytica […] trophozoites infected in Syrian hamster assessed as triglycerides level at 0.1 mg/kg, ip at 4 days post infection and measured on day 8 (reference value: 395 +/- 41 mg/dl); format: functional, HM-1:IMSS; settings: time 4 day
[14] = system: CHO-K1; test: Cytotoxicity against CHO-K1 cells assessed as reduction in cell viability after 24 hrs by MTT assay; format: cell-based; settings: Cricetulus griseus, CHO-K1, 24 h
[15] = system: Entamoeba histolytica; test: Induction of ROS generation in Entamoeba histolytica […] trophozoites at IC50 concentration incubated for 1 hr by DCFDA staining based assay; format: functional, organism-based; settings: HM-1:IMSS
[16] = system: Entamoeba histolytica; test: Antimicrobial activity against Entamoeba histolytica […] trophozoites infected in Syrian hamster assessed as ALP level at 0.1 mg/kg, ip at 4 days post infection and measured on day 8 (reference value: 638 +/- 50 U/L); format: functional, HM-1:IMSS; settings: time 4 day
[17] = system: Entamoeba histolytica; test: Induction of DNA fragmentation in Entamoeba histolytica […] trophozoites at IC50 concentration after 1 hr by TUNEL assay relative to control; format: functional, HM-1:IMSS
[18] = system: Entamoeba histolytica; test: Antimicrobial activity against Entamoeba histolytica […] trophozoites infected in Syrian hamster assessed as inhibition of amoebic liver abscess by measuring vascular congestion at 0.1 mg/kg, ip at 4 days post infection and measured on day 8 by H and E staining based microscopic method; format: functional, organism-based; settings: HM-1:IMSS, time 4.0 day
[19] = system: Entamoeba histolytica; test: Antimicrobial activity against Entamoeba histolytica […] trophozoites assessed as decrease in number of vacuoles at IC50 concentration after 48 hrs by uranyl acetate staining based TEM analysis; format: functional, organism-based; settings: HM-1:IMSS
[20] = system: Entamoeba histolytica; test: Antimicrobial activity against Entamoeba histolytica HM1:MMS assessed as reduction in amoeba growth; format: functional, organism-based; settings: HM-1:IMSS
[21] = system: Entamoeba histolytica; test: Antimicrobial activity against Entamoeba histolytica […] trophozoites infected in Syrian hamster assessed as creatinine level at 0.1 mg/kg, ip at 4 days post infection and measured on day 8 (reference value: 0.9 +/- 0.06 mg/dl); format: functional, HM-1:IMSS; settings: time 4 day
[22] = system: Entamoeba histolytica; test: Antimicrobial activity against Entamoeba histolytica […] trophozoites infected in Syrian hamster assessed as ALT level at 0.1 mg/kg, ip at 4 days post infection and measured on day 8 (reference value: 276 +/- 24 U/L); format: functional, HM-1:IMSS; settings: time 4 day
[23] = system: Entamoeba histolytica; test: Antimicrobial activity against Entamoeba histolytica […] trophozoites infected in Syrian hamster assessed as inhibition of amoebic liver abscess by measuring edema at 0.1 mg/kg, ip at 4 days post infection and measured on day 8 by H and E staining based microscopic method; format: functional, organism-based; settings: HM-1:IMSS, time 4.0 day
[24] = system: Entamoeba histolytica; test: Induction of apoptosis in Entamoeba histolytica […] trophozoites assessed as early apoptotic cells at IC50 concentration after 48 hrs by annexin-V-FITC/propidium iodide staining based flow cytometric analysis (reference value: 0.9%); format: functional, HM-1:IMSS
[25] = system: Entamoeba histolytica; test: Induction of apoptosis in Entamoeba histolytica […] trophozoites assessed as viable cells at IC50 concentration after 48 hrs by annexin-V-FITC/propidium iodide staining based flow cytometric analysis (reference value: 98%); format: functional, HM-1:IMSS
[26] = system: Entamoeba histolytica; test: Antimicrobial activity against Entamoeba histolytica […] trophozoites assessed as abnormal condensation of chromatin at IC50 concentration after 48 hrs by uranyl acetate staining based TEM analysis; format: functional, organism-based; settings: HM-1:IMSS
[27] = system: Entamoeba histolytica; test: Antimicrobial activity against Entamoeba histolytica […] trophozoites assessed as decrease in granularity at IC50 concentration after 48 hrs by uranyl acetate staining based TEM analysis; format: functional, organism-based; settings: HM-1:IMSS
[28] = system: Entamoeba histolytica; test: Induction of ROS generation in Entamoeba histolytica […] trophozoites at IC50 concentration incubated for 1 hr in presence of catalase by DCFDA staining based assay relative to control; format: functional, HM-1:IMSS
[29] = system: Entamoeba histolytica; test: Antimicrobial activity against Entamoeba histolytica […] trophozoites infected in Syrian hamster assessed as inhibition of amoebic liver abscess by measuring liver weight at 0.1 mg/kg, ip at 4 days post infection and measured on day 8 relative to control; format: functional; settings: HM-1:IMSS, 96 h, time 4 day

SMILES: C[C@]12C[C@H](c3ccoc3)OC(=O)[C@H]1CC[C@@]13COC(=O)C1=CC=C[C@H]32
- Activity [1]: 58.6%
- inhibition [2]: Active
- Activity [3]: Active
- Activity [4]: 17 mg/dL
- Activity [5]: 130 mg/dL
- Activity [6]: Active
- Activity [7]: 0.4 mg/dL
- Activity [8]: 9.4%
- Activity [9]: 45 mg/dL
- IC50 [10]: 600 µM
- inhibition [11]: Active
- Activity [12]: 320 thousand/mm3
- Activity [13]: 127 mg/dL
- IC50 [14]: 880 µM
- Activity [15]: Active
- Activity [16]: 324 U/L
- Activity [17]: 78%
- inhibition [18]: Active
- Activity [19]: Active
- IC50 [20]: 27.7 µM
- Activity [21]: 0.6 mg/dL
- Activity [22]: 81 U/L
- inhibition [23]: Active
- Activity [24]: 19.5%
- Activity [25]: 12.6%
- Activity [26]: Active
- Activity [27]: Active
- Activity [28]: 52.68%
- inhibition in vivo at 0.1 mg/kg [29]: 93.3%
